Here are results for 80 compounds from the METLIN SMRT retention time set (Domingo-Almenara et al. 2019).

The data set is described as follows: gradient 5% acetonitrile 3 min, to 50% in 2 min, to 85% in 15 min, held 3 min, 100 µL/min. As to conditions: column: Zorbax Extend-C18 2.1 x 50 mm; eluents: water / acetonitrile, 0.1% formic acid. The essentials: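 Retention times come from adduct peaks that were picked computationally and then checked by hand. The standards, pure and pooled in mixtures of ~100 molecules, were run on a Zorbax Extend-C18 column (2.1 × 50 mm, 1.8 μm) at 100 μL/min with water and acetonitrile, each with 0.1% formic acid. Detection was by quadrupole time-of-flight mass spectrometry in positive and negative ionization mode, with a dead volume of 40 μL and a dwell volume of 900 μL.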
In the case of `O=C(c1cccs1)N1CC(Oc2ccc(-c3nc(-c4ccccc4)no3)cc2)C1`, the RP-LC retention time was 1170 s.

Turning to `CCc1c(C2CCN(C(=O)c3cc(C)on3)CC2)noc1N`, the RP-LC retention time was found to be 669 s.

For `CCCNc1cc(N2CCC(CCC(=O)NCc3ccc(Cl)cc3)CC2)ncn1`, the RP-LC retention time stood at 718 s.

The compound `COc1ccc(-c2csc(NC(=O)COc3ccc(Cl)c(Cl)c3)n2)cc1` yielded an RP-LC retention time of 1200 s.

Consider `CNC(=O)c1cc(-c2cccc(OC)c2)nc2ccccc12`, for which the RP-LC retention time came to 800 s.

In the case of `Cc1nnc2ccc(NC(C)C)nn12`, the RP-LC retention time came to 676 s.

For `CCN(C(=O)c1ccco1)c1nc(-c2ccc(C)cc2)cs1`, the RP-LC retention time worked out at 1280 s.

As for `O=C(NCC1CC1)c1ccc(NC(=O)C2CCC2)cc1N1CCOCC1`, the RP-LC retention time came to 709 s.

Compound `CC(C)CCNC(=O)C12CCCC=C1N(c1ccccc1)C(=O)CC2` (stereo not given) showed an RP-LC retention time of 819 s.

Take `Cc1ccc(Nc2nc(-c3ccc(Cl)cc3)cs2)nc1`: the RP-LC retention time is 1050 s.

`Cc1cccc(N2CCN(C3=NC(=O)C(Cc4ccccc4)S3)CC2)c1` (stereo not given) gave an RP-LC retention time of 910 s.

Compound `COc1cccc(CNC2CCN(c3ccc(C(=O)NC4CC4)cn3)C2)c1O` (stereo not given) registered an RP-LC retention time of 556 s.

`CN(C)CCNC(=O)c1cc(N2CCCC2)n2nccc2n1` gave an RP-LC retention time of 590 s.

For the compound `Clc1ccccc1-c1nc(-c2ccncc2)no1`, the RP-LC retention time came to 1040 s.

The compound `Cc1nc(CC(=O)Nc2ccc(F)cc2F)sc1C(=O)NC1CC1` gave an RP-LC retention time of 696 s.

Turning to `Cc1ccccc1CNC(=O)C1CCCN(S(=O)(=O)c2c[nH]c(C(=O)N3CCCCCC3)c2)C1` (stereo not given), the RP-LC retention time was 871 s.

`Cc1[nH]nc(-c2c(C)sc(C)c2S(=O)(=O)N2CCc3ccccc3C2)c1C` registered an RP-LC retention time of 975 s.

In turn, `Cc1ccc(N(C)C(=O)Cn2ccc3c(=O)n(C)c(=O)n(C)c32)cc1C` displayed an RP-LC retention time of 693 s.

In the case of `O=C(c1cncc(Br)c1)N1CCC(Cc2nc(-c3ccc(Cl)cc3)no2)CC1`, the RP-LC retention time worked out at 1050 s.

`C[C@]12CCC3=C4CCC(=O)C=C4CC[C@H]3[C@@H]1CC[C@@]2(O)CC#N` had an RP-LC retention time of 796 s.

`CCOC(=O)c1cnc2c(-c3cccc(Cl)c3)c(COC)nn2c1N` returned an RP-LC retention time of 1150 s.

The compound `CCn1cc(S(=O)(=O)NCCn2c(C)cnc2-c2ccccc2)cn1` came in with an RP-LC retention time of 560 s.

The compound `Cc1ccc(Cl)cc1N1CCN(C(=O)c2cc3sccc3n2C)CC1` came in with an RP-LC retention time of 984 s.

As to `Cc1sc(NC(=O)CCc2ccccc2)nc1-c1ccc2c(c1)NC(=O)CO2`, the RP-LC retention time was 888 s.

`COc1ccc(N2CCN(c3nc(C(=O)N4CCN(C)CC4)cs3)CC2)cc1`: the RP-LC retention time is 614 s.

As for `CC(C)c1noc(-c2cccnc2N2CCCN(Cc3ccccc3Cl)CC2)n1`, the RP-LC retention time amounted to 723 s.

Turning to `CCOc1ccc(-c2noc(Cn3cnc4c(cnn4-c4ccc(CC)cc4)c3=O)n2)cc1OC`, the RP-LC retention time turned out to be 1070 s.

`COCCc1nnc(NC(=O)c2cn(C)nc2OC)o1` displayed an RP-LC retention time of 558 s.

The compound `COCc1nncn1C1CCN(S(=O)(=O)c2cccc(OC)c2)CC1` displayed an RP-LC retention time of 751 s.

Take `CCCN1CCN(C(=O)C2CCN(S(=O)(=O)c3ccc4c(c3)sc(=O)n4C(C)C)CC2)CC1`: the RP-LC retention time is 665 s.

The compound `COc1ccccc1-c1nnc(-c2ccc(C)c(S(=O)(=O)N(C)C)c2)o1` registered an RP-LC retention time of 895 s.

Compound `CCC[C@@H](NC(=O)N1C(=O)C(CC)(CC)[C@@H]1Oc1ccc(C(=O)N2CCN(C)CC2)cc1)c1ccc2c(c1)OCO2` had an RP-LC retention time of 919 s.

Take `CCCN(C)c1nccnc1OC1CCN(C(=O)CC)C1` (stereo not given): the RP-LC retention time was 694 s.

As to `COc1cc(F)ccc1-c1ccnc2nc(C3CCCCC3)nn12`, the RP-LC retention time is 1000 s.

Consider `CCn1c(=O)c(N2CCN(C(=O)Nc3ccc(Br)cc3)CC2)nc2ccccc21`, for which the RP-LC retention time was 1030 s.

For the compound `CN1C(=O)c2ccccc2C(C(=O)NCCCN2CCc3ccccc3C2)C1c1cccs1` (stereo not given), the RP-LC retention time was 647 s.

Compound `Cc1ccc(C)c(-c2coc(-c3ccc(NC(=O)C(C)(C)C)cc3)n2)c1` yielded an RP-LC retention time of 1280 s.

`Cc1ccccc1Cn1c(N2CCC(C(=O)N3CCN(c4ccccn4)CC3)CC2)nc2ccccc21` returned an RP-LC retention time of 587 s.

Take `CCCN(CCC)CCCNC(=O)C1CCCN(c2ncc(-c3ccc(F)cc3)cn2)C1` (stereo not given): the RP-LC retention time was determined as 749 s.

In turn, `CCc1nnc(-c2nnc(NC3CCCCCC3)c3ccccc23)o1` returned an RP-LC retention time of 821 s.

For the compound `O=C(COc1ccc([N+](=O)[O-])cc1)Nc1ccc(S(=O)(=O)N2CCCCC2)cc1`, the RP-LC retention time was 886 s.

Compound `CC(C)N(CC(=O)N1CCNCC1)C(=O)c1cccc(Br)c1` registered an RP-LC retention time of 573 s.

The compound `O=C(NCc1csc(-c2cccs2)n1)C1CCN(C(=O)c2cccc(Cl)c2)CC1` yielded an RP-LC retention time of 802 s.

Regarding `O=C(Cn1nc(Cc2ccncc2)c2ccccc2c1=O)N1CCOCC1`, the RP-LC retention time worked out at 787 s.

With `COc1cccc(NC(=O)N2CCN(Cc3nc4ccc(Cl)cc4o3)CC2)c1`, the RP-LC retention time is 726 s.

`COC(=O)c1ncn2c1C(=O)N(c1ccccc1C)C(C)(C(=O)NCc1ccccc1)C2` (stereo not given): the RP-LC retention time worked out at 715 s.

In turn, `COc1ccc(NC(=O)N2CCC3(C2)C(=O)N(C)c2ccccc23)cc1OC` (stereo not given) yielded an RP-LC retention time of 808 s.

Turning to `O=S(=O)(c1ccc(-c2csc(Nc3ccc(Cl)cc3)n2)cc1)N1CCOCC1`, the RP-LC retention time turned out to be 1080 s.

For the compound `O=c1n(Cc2nc(-c3ccc(OC(F)(F)F)cc3)no2)nc2ccc(-c3ccccc3)nn12`, the RP-LC retention time turned out to be 1070 s.

Take `Cc1cccc(-n2c(=O)c3c(cc(C)n3C)n(CC(=O)Nc3cccc(C(C)C)c3)c2=O)c1`: the RP-LC retention time was found to be 626 s.

With `Cc1oc(-c2[nH]ncc2C(=O)N(C)C)cc1S(=O)(=O)NCc1ccccn1`, the RP-LC retention time was 833 s.

Take `O=C(CCNc1c(-c2cccc(F)c2)nc2cnccn12)NCc1ccco1`: the RP-LC retention time is 680 s.

`Cc1ccc(-c2nnc(-c3cccc(S(=O)(=O)Nc4cccnc4)c3)o2)cc1` registered an RP-LC retention time of 775 s.

For `CN1CCCc2cc(C(CNC(=O)C(=O)Nc3ccc4c(c3)OCCO4)N3CCCC3)ccc21` (stereo not given), the RP-LC retention time turned out to be 718 s.

`CCCNC(=O)CCc1nc2ccccc2n(CC(=O)Nc2ccccc2C(=O)OC)c1=O` yielded an RP-LC retention time of 843 s.

On to `O=C(NC1CCc2nnc(C3CC3)n2CC1)c1cc(C2CC2)[nH]n1` (stereo not given), for which the RP-LC retention time was found to be 581 s.

In turn, `COc1ccc(N2CC(c3noc(-c4cccc(F)c4)n3)CC2=O)cc1OC` (stereo not given) returned an RP-LC retention time of 847 s.

Take `COc1cc(NC(=O)NC2COc3ccccc3C2)cc(OC)c1OC` (stereo not given): the RP-LC retention time came to 773 s.

In turn, `Cc1cccc(-n2c(=O)c3c(cc(C)n3C)n(CC(=O)Nc3ccc(C)c(C)c3)c2=O)c1` yielded an RP-LC retention time of 912 s.

The compound `Cc1ccc(NC(=O)Cn2nc(C(=O)N3CCOCC3)c3ccccc32)c(Br)c1` had an RP-LC retention time of 825 s.

For `O=C(Nc1ccc2c(c1)N(C(=O)c1ccccc1)CCC2)c1cccs1`, the RP-LC retention time is 876 s.

The compound `Cc1cc(C(=O)Nc2c(F)cc(F)cc2Br)n(-c2ccccc2)n1` showed an RP-LC retention time of 884 s.

`CCN(CC)CCNC(=O)Cn1nc(-c2ccc(Cl)cc2)ccc1=O` displayed an RP-LC retention time of 624 s.

Regarding `CCCN1C(=O)c2c(C(=O)NCc3ccc(Cl)cc3)ncn2CC1(C)C(=O)NCCC(C)C` (stereo not given), the RP-LC retention time was found to be 868 s.

In turn, `Cc1ccccc1N1CCN(S(=O)(=O)c2ccc(-c3nnc(C4CC4)o3)o2)CC1` registered an RP-LC retention time of 1090 s.

Regarding `NC(=O)c1cc(-c2ccccc2)nc2ccccc12`, the RP-LC retention time worked out at 743 s.

Compound `COC(=O)c1c(NCc2ccccc2Br)c2cc(F)ccc2[nH]c1=O` gave an RP-LC retention time of 787 s.

Compound `O=C(NC1CCCCC1)C1CCCN(c2ccc(=O)n(-c3cccc(F)c3)n2)C1` (stereo not given) yielded an RP-LC retention time of 785 s.

As for `CCc1nc2c(c(=O)n1CC(=O)Nc1ccc(OC)cc1)CN(Cc1ccccc1)CC2`, the RP-LC retention time is 635 s.

`COC(=O)N1CCN(CCNC(=O)Cc2ccc(SC(C)C)cc2)CC1` registered an RP-LC retention time of 584 s.

Compound `COc1cc(NC(=O)N2CCCC2c2nncn2C2CCCC2)cc(OC)c1` (stereo not given) displayed an RP-LC retention time of 677 s.

`CCN(CC)C(=O)Cn1ccc(NC(C)=O)nc1=O` returned an RP-LC retention time of 602 s.

Regarding `CCOc1cccc(-c2noc(-c3nnn4c3COC(c3ccc(OC)cc3)C4)n2)c1` (stereo not given), the RP-LC retention time worked out at 1210 s.

`O=C1OCC/C1=C\OCCCO/C=C1\CCOC1=O` registered an RP-LC retention time of 716 s.

In turn, `O=C(NCCOc1ccc2c(c1)OCO2)c1c(F)cccc1F` showed an RP-LC retention time of 760 s.

In turn, `O=C(c1ccoc1)N1CCC2(CCCCO2)CC1` returned an RP-LC retention time of 639 s.

For the compound `O=C(Nc1cccc(Br)c1)N1CCc2nc(-c3ccc(F)cc3)ncc2C1`, the RP-LC retention time amounted to 1060 s.

Consider `COc1cccc(NC(=O)c2cc(C(C)(C)C)n3nccc3n2)c1`, for which the RP-LC retention time was 1250 s.

For the compound `O=C(Cn1ccn2nc(-c3ccc(F)cc3)c(CO)c2c1=O)N1CCCc2ccccc21`, the RP-LC retention time amounted to 899 s.

`CCn1c(C(=O)Nc2cc(C)ccc2C)cc2sc(Cl)cc21` came in with an RP-LC retention time of 1230 s.
